In patent US20170363618A1, “AGE-MODIFIED CELLS AND METHODS FOR MAKING AGE-MODIFIED CELLS” (MEMORIAL SLOAN-KETTERING CANCER CENTER, priority 2015, published 2017):
“Also recorded” adds a separate entry of the source. Like-named read-outs stand apart in the source and are kept apart here.

How the values were obtained:
[1] = tested on: young (348) and old (204) fibroblasts; assay: 10-day culture with compounds, cell survival measured by cell number counts; type: cell-based
Description: Cell numbers are calculated as a mean of 8 wells.
Control cultures of young cells were still healthy after 10 days, and the compounds all had effects on viability (FIG. 15).

[2] = tested on: global DNA levels of 5-mC methylation; assay: Global 5-mC DNA methylation quantification (colorimetric Methylflash kit) in treated fibroblasts; type: cell-based, human; settings: 3 days of treatment, young and old fibroblasts, three concentrations
Description: Genomic DNA was extracted from treated cell samples using the Quick-gDNA MicroPrep kit (Zymo). Global levels of DNA methylation were measured using the colorimetric Methylflash Methylated DNA quantification kit (Epigentek) according to manufacturer instructions, and read using the PerkinElmer ENSPIRE plate reader. gDNA sample size was 50 ng. Analysis was performed according to manufacturer instructions.
(§1) Cells were then treated with each of the six compounds for three days. Each compound had both a young and old untreated control, as well as the three pre-determined concentrations for both young and old cells. In addition, a six-well plate was set up for Decitabine, Zebularine, Chaetocin and SW155246, with an additional 3 cm plate for use as untreated controls for quantification of global levels of DNA methylation. After treatment, cells were stained with immunofluorescence for HP1α, H1, γH2Ax, Lamin B1, H3K9me3 and […].

[3] = tested on: young (348) and old (204) fibroblasts; assay: Immunofluorescence detection of aging marker expression in fibroblasts after three-day compound treatment; type: cell-based, human; settings: for shape of youthful marker expression over the three doses (C1-C3): in some cases, highest dose gave lower expression than middle or lower dose
Description: Cell samples were all supplied by Coriell Cell Repositories. The cell line from a young individual (<20 years) was GM03348 (“348”). The cell line from an old individual (>65 years) was GM04204 (“204”).
Cells were cultured in human fibroblast medium made from 95% Gibco's Minimum Essential Medium, 4.5% fetal bovine serum, and 0.5% Penicillin/Streptomycin. Cells were plated on 15 cm plates and passaged every 2-3 days as necessary, and fed every other day. For experimentation, cells were plated in 96 well plates or 6 well plates. Before fixation, cells were treated with a preextraction buffer containing 20 mM Hepes pH 7.9, 0.5% Triton X-100, 50 mM NaCl, and 300 mM sucrose for 7 minutes at 4° C. to reduce the high levels of background seen in initial stainings. Cells were then fixed with 4% paraformaldehyde for 15 minutes at room temperature.
After fixing, cells were incubated in Permeablization Buffer containing 0.3% Triton X-100 and 1% BSA in PBS for 35 minutes at room temperature. Cells were then incubated with primary antibodies to markers (1:1000 in PBS) at 4° C. overnight. Following incubation, cells were washed 3× with PBS, then incubated with secondary antibodies (1:500 in PBS) for 30 minutes at room temperature, protected from light. Following this incubation, cells were washed 1× with PBS, then incubated with DAPI 1:1000 in PBS for 7 minutes at room temperature, protected from light, then washed 2× with PBS. Stainings were imaged using either using the Hamamatsu Olympus IX81 microscope, or the PerkinElmer Operetta High Content Imaging System. The expression level of each marker was determined relative to the untreated control on the same treatment plate (FIGS. 11, 13, 15 and 16), or to the average of the untreated controls across all treatment plates for the same marker (FIGS. 12 and 14).
Imaging of immunofluorescence was done using the PerkinElmer Operetta High Content Imaging System. Each well had several (>15) random spots in each plate imaged, and staining intensity quantification was done using the Operetta Harmony software. Analysis is based on mean intensity levels of each staining within a single well compared to mean intensity levels in other wells.
as §1

motor neurons (MNs) = settings: ALS motor neuron screen, 72 hr with compound; cited from earlier work
[4] = 3-day treatment, young and old fibroblasts
[5] = 3-day treatment, primary fibroblasts from young and old individuals, immunofluorescence vs untreated control

## Nc1ncn([C@H]2C[C@H](O)[C@@H](CO)O2)c(=O)n1 [Decitabine, 5-aza-2-deoxycytidine]
[1]
  toxicity / effect on viability after prolonged culture (cell number): Much less toxicity

## CO[C@H]1C[C@@H]2CC[C@@H](C)[C@@](O)(O2)C(=O)C(=O)N2CCCC[C@H]2C(=O)O[C@H]([C@H](C)C[C@@H]2CC[C@@H](O)[C@H](OC)C2)CC(=O)[C@H](C)/C=C(\C)[C@@H](O)[C@@H](OC)C(=O)[C@H](C)C[C@H](C)/C=C/C=C/C=C/1C [Rapamycin]
[1]
  toxicity / effect on viability after prolonged culture (cell number): Toxicity was also seen

## CN1C(=O)[C@@]23C[C@]4([C@]56C[C@@]78SS[C@@](CO)(C(=O)N7[C@H]5Nc5ccccc56)N(C)C8=O)c5ccccc5N[C@@H]4N2C(=O)[C@]1(CO)SS3 [Chaetocin, (3S,3'S,5aR,5aR,10bR,10′bR,11aS,11′aS)-2,2′,3,3′,5a,5′a,6,6′-octahydro-3,3′-bis(hydroxymethyl)-2,2′-dimethyl-[10b,10′b(11H,11′H)-bi3,11a-epidithio-11aH-pyrazino[1′,2′:1,5]pyrrolo[2,3-b]indole]-1,1′,4,4′-tetrone]
[1]; 10-day culture, young cells (control cultures still healthy)
  toxicity / effect on viability after prolonged culture (cell number): highest toxicity

## O=c1ncccn1[C@@H]1O[C@H](CO)[C@@H](O)[C@H]1O [Zebularine, 1-(β-D-Ribofuranosyl)-2(1H)-pyrimidinone]
[2]
  global levels of 5-mC DNA methylation: decrease
[3]; 3-day treatment
  shape of youthful marker expression over the three doses (C1-C3): inverted U shaped curve
[3]; [4]
  expression of the six markers tested: modulated
[1]
  toxicity / effect on viability after prolonged culture (cell number): Much less toxicity

## Oc1ccc(C=Cc2cc(O)cc(O)c2)cc1 [Resveratrol]
[3]; 3-day culture
  effect on markers in young cells compared to old cells: greater in young cells compared to old cells; also recorded: more of an effect on young cells than on old cells
[3]; 3-day culture, young (348) and old (204) fibroblasts, normalized to untreated, FIG. 11
  levels of all markers (H1, HP1α, H3K9me3, H3K27me3, LaminB1, yH2Ax): increased
[3]; 3-day culture, young and old fibroblasts
  levels of the five markers of a younger state (H1, HP1α, H3K9me3, H3K27me3, LaminB1): all increased
[3]; [5]
  levels of HP1α (heterochromatin marker, marker of young cellular age): increasing
  levels of histone protein H1 (marker of young cellular age): increasing
[1]
  toxicity / effect on viability after prolonged culture (cell number): Toxicity was also seen

## O=[N+]([O-])c1cc(S(=O)(=O)Nc2ccc(O)c3ccccc23)ccc1Cl [SW155246, 4-Chloro-N-(4-hydroxy-1-naphthalenyl)-3-nitro-benzenesulfonamide]
[2]
  global levels of 5-mC DNA methylation: increased with both the highest and lowest concentrations, but decreased slightly with the middle concentration; also recorded: did not consistently go down
[3]; 3-day treatment
  shape of youthful marker expression over the three doses (C1-C3): inverted U shaped curve
[3]; [5]
  levels of HP1α (heterochromatin marker, marker of young cellular age): decreasing
  levels of histone protein H1 (marker of young cellular age): decreasing
  levels of γH2AX (DNA damage marker, marker of old cellular age): increasing
[3]; [4]
  expression of the six markers tested: modulated
[1]
  toxicity / effect on viability after prolonged culture (cell number): Much less toxicity

## O=C1Cc2c([nH]c3ccc(Br)cc23)-c2ccccc2N1 [kenpaullone]
Motor neurons (MNs)
  survival of motor neurons after trophic factor withdrawal: impressive ability to prolong the healthy survival of MNs
